Results reported in patent US6090828A, “5-aryleheteroarylalkyl-1,3,5-trisubstituted-1,2,4-triazole compounds for treatment of circulatory disorders” (priority 1997, dated 2000).
Where two headings read alike, the source gives them in different places.

How the values were obtained:
[1] = test system: pressor response to AII; experiment: Assay C: In Vivo Intragastric Pressor Assay Response for AII Antagonists; parameters: species or system rat (male Sprague-Dawley); details: 3 mg/kg (i.g.), AII 30 ng/kg i.v. bolus; for Duration: followed to 180 minutes; for inhibition in vivo at 3 mg/kg: Rattus norvegicus, po
Description: The catheters were tunneled subcutaneously to exit dorsally, posterior to the head and between the scapulae. The catheters were filled with heparin (1000 units/ml of saline). The rats were returned to their cage and allowed regular rat chow and water ad libitum. After full recovery from surgery (3-4 days), rats were placed in Lucite holders and the arterial line was connected to a pressure transducer. Arterial pressure was recorded on a Gould polygraph (mmHg). Angiotensin II was administered as a 30 ng/kg bolus via the venous catheter delivered in a 50 μl volume with a 0.2 ml saline flush. The pressor response in mm Hg was measured by the difference from pre-injection arterial pressure to the maximum pressure achieved. The AII injection was repeated every 10 minutes until three consecutive injections yielded responses within 4 mmHg of each other. These three responses were then averaged and represented the control response to AII. The test compound was suspended in 0.5% methylcellulose in water and was administered by gavage. The volume administered was 2 ml/kg body weight. The standard dose was 3 mg/kg. Angiotensin II bolus injections were given at 30, 45, 60, 75, 120, 150, and 180 minutes after gavage. The pressor response to AII was measured at each time point. The rats were then returned to their cage for future testing. A minimum of 3 days was allowed between tests. Percent inhibition was calculated for each time point following gavage by the following formula: [(Control Response-Response at time point)/Control Response]×100.

[2] = target: T1, rabbit aortic rings (Oryctolagus cuniculus, UniProt P34976); experiment: Assay B: In Vitro Vascular Smooth Muscle Response for AII; parameters: species or system rabbit (male New Zealand white); details: rabbit aorta rings, two rabbits per antagonist, antagonist 10^-5 M, 5 minutes, AII contraction, Schild
T1 construct: The thoracic aorta was removed, cleaned of adherent fat and connective tissue and then cut into 3-mm ring segments; from tissue; host or cells: rabbit thoracic aorta rings, endothelium removed
T1 sequence (P34976 1-359): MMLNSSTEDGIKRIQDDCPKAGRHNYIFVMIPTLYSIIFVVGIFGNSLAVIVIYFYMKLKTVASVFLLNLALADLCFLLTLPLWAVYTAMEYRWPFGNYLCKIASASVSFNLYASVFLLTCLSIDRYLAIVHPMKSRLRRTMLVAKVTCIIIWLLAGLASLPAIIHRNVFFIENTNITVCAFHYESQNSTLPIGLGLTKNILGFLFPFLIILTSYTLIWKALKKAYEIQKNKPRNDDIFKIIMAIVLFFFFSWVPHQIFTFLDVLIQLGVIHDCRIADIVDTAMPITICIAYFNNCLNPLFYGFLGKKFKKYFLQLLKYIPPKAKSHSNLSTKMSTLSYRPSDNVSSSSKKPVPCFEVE
Description: The compounds of the invention were tested for antagonist activity in rabbit aortic rings. Male New Zealand white rabbits (2-2.5 kg) were sacrificed using an overdose of pentobarbital and exsanguinated via the carotid arteries. The thoracic aorta was removed, cleaned of adherent fat and connective tissue and then cut into 3-mm ring segments. The endothelium was removed from the rings by gently sliding a rolled-up piece of filter paper into the vessel lumen. The rings were then mounted in a water-jacketed tissue bath, maintained at 37° C., between moveable and fixed ends of a stainless steel wire with the moveable end attached to an FT03 Grass transducer coupled to a Model 7D Grass Polygraph for recording isometric force responses. […] The preparations were equilibrated for one hour before approximately one gram of passive tension was placed on the rings. Angiotensin II concentration-response curves were then recorded (3×10^-10 to 1×10^-5 M). Each concentration of AII was allowed to elicit its maximal contraction, and then AII was washed out repeatedly for 30 minutes before rechallenging with a higher concentration of AII. Aorta rings were exposed to the test antagonist at 10^-5 M for 5 minutes before challenging with AII. Adjacent segments of the same aorta ring were used for all concentration-response curves in the presence or absence of the test antagonist. […] The pA2 value is the concentration of the antagonist which increases the EC50 value for AII by a factor of two. Each test antagonist was evaluated in aorta rings from two rabbits.

[3] = target: smooth muscle angiotensin II receptor; experiment: Assay A: Angiotensin II Binding Activity; details: 50% displacement of specifically bound 125I-AII; rat uterine membranes; pH 7.5; 25° C., 60 min
Description: Compounds of the invention were tested for ability to bind to the smooth muscle angiotensin II receptor using a rat uterine membrane preparation. […] Rat uterine membranes were prepared from fresh tissue. All procedures were carried out at 4° C. Uteri were stripped of fat and homogenized in phosphate-buffered saline at pH 7.4 containing 5 mM EDTA. The homogenate was centrifuged at 1500×g for 20 min., and the supernatant was recentrifuged at 100,000×g for 60 min. The pellet was resuspended in buffer consisting of 2 mM EDTA and 50 mM Tris-HCl (pH 7.5) to a final protein concentration of 4 mg/ml. […] The reaction was initiated by the addition of membrane protein and the mixture was incubated at 25° C. for 60 min. The incubation was terminated with ice-cold 50 mM Tris-HCl (pH 7.5) and the mixture was filtered to separate membrane-bound labelled peptide from the free ligand. The incubation tube and filter were washed with ice-cold buffer. Filters were assayed for radioactivity in a Micromedic gamma counter. Nonspecific binding was defined as binding in the presence of 10 μM of unlabelled AII. Specific binding was calculated as total binding minus nonspecific binding. […] Binding data were analyzed by a nonlinear least-squares curve fitting program.

[4] = test system: angiotensin II receptor; details: cited from earlier work; for angiotensin II antagonist activity: binding experiments, functional assays and in vivo tests, literature
[5] = read-out: pA2 (first of two values) (converted)
[6] = read-out: pA2 (second of two values) (converted)

Compound | Inhibition ([1]; conscious rats) [%] | Duration [1] [min] | pA2 (first of two values) [2] | pA2 (second of two values) [2] | IC50 [3] [nM] | angiotensin II antagonist activity [4] | inhibition in vivo at 3 mg/kg ([1]; conscious rats) [%] | Kb [2, 5] [nM] | Kb [2, 6] [nM] | residual agonist activity ([4]; background statement)
5-[2-[5-[(1-butyl-3-propyl-1H-1,2,4-triazol-5-yl)methyl]-2-pyridinyl]phenyl]-1H-tetrazole [Example 3] | 10 | 140 | 7.46 | 7.23 | 150 |  |  |  |  | 
CCCCc1nc(Cl)c(CC(=O)O)n1Cc1ccccc1[N+](=O)[O-] [2-butyl-4-choloro-1-(2-nitrobenzyl)imidazole-5-acetic acid] |  |  |  |  |  | specific competitive angiotensin II antagonist activity |  |  |  | 
CCCCc1nc(Cl)c(CC(=O)O)n1Cc1ccccc1Cl [2-n-butyl-4-chloro-1-(2-chlorobenzyl)imidazole-5-acetic acid] |  |  |  |  |  | specific competitive angiotensin II antagonist activity |  |  |  | 
CCCCc1nc(Cc2ccc(-c3ccccc3-c3nnn[nH]3)nc2)n(CCCC)n1 [Example 1, 5-[2-[5-[(1,3-dibutyl-1H,1,2,4-triazol-5-yl)methyl]-2-pyridinyl]phenyl]-1H-tetrazole] |  | > 180 |  |  | 14 |  | 25 | 9.33 | 15.8 | 
CCCCn1nc(CCc2cccs2)nc1Cc1ccc(-c2ccccc2-c2nnn[nH]2)nc1 [Example 4, 5-[2-[5-[[1-butyl-3-[2-(2-thienyl)ethyl]-1H-1,2,4-triazol-5-yl]methyl]-2-pyridinyl]phenyl]-1H-tetrazole] |  | > 180 |  |  | 13 |  | 25 | 5.01 | 20.4 | 
CCCCn1nc(-c2ccccc2Cl)nc1Cc1ccc(-c2ccccc2-c2nnn[nH]2)nc1 [Example 9, 5-[2-[5-[[1-butyl-3-(2-chlorophenyl)-1H-1,2,4-triazol-5-yl]methyl]-2-pyridinyl]phenyl]-1H-tetrazole] |  | > 180 |  |  | 54 |  | 30 | 5.89 | 7.24 | 
CCCCn1nc(C(O)CCC)nc1Cc1ccc(-c2ccccc2-c2nnn[nH]2)nc1 (stereo not shown) [Example 10, 5-[2-[5-[[1-butyl-3-(1-hydroxybutyl)-1H-1,2,4-triazol-5-yl]methyl]-2-pyridinyl]phenyl]-1H-tetrazole] |  | 150 |  |  | 21 |  | 10 | 12 | 27.5 | 
CCCn1nc(C(F)(F)CCC)nc1Cc1ccc(-c2ccccc2-c2nnn[nH]2)nc1 [Example 20, 5-[2-[5-[[1-propyl-3-(1,1-difluorobutyl)-1H-1,2,4-triazol-5-yl]methyl]-2-pyridinyl]phenyl]-1H-tetrazole] |  | 180 |  |  | 150 |  | 15 | 16.6 | 26.3 | 
CCCCn1nc(C(F)(F)CCC)nc1Cc1ccc(-c2ccccc2-c2nnn[nH]2)nc1 [Example 21, 5-[2-[5-[[1-butyl-3-(1,1-difluorobutyl)-1H-1,2,4-triazol-5-yl]methyl]-2-pyridinyl]phenyl]-1H-tetrazole] |  | > 180 |  |  | 26 |  | 40 | 83.2 | 17 | 
CCCCn1nc(C(=O)N(C)C(C)(C)C)nc1Cc1ccc(-c2ccccc2-c2nnn[nH]2)nc1 [Example 22, 5-[2-[5-[[1-butyl-3-(N-methyl-N-tertbutylamido)-1H-1,2,4-triazol-5-yl]methyl]-2-pyridinyl]phenyl]-1H-tetrazole] |  | 0 |  |  | 28 |  | 0 | 30.2 | 77.6 | 
CCCCn1nc(C(OC)OC)nc1Cc1ccc(-c2ccccc2-c2nnn[nH]2)nc1 [Example 26, 5-[2-[5-[[1-butyl-3-dimethoxymethyl-1H-1,2,4-triazol-5-yl]methyl]-2-pyridinyl]phenyl]-1H-tetrazole] |  | 0 |  |  | 27 |  | 0 |  |  | 
CCCCn1nc(C(OCC)OCC)nc1Cc1ccc(-c2ccccc2-c2nnn[nH]2)nc1 [Example 27, 5-[2-[5-[[1-butyl-3-diethoxymethyl-1H-1,2,4-triazol-5-yl]methyl]-2-pyridinyl]phenyl]-1H-tetrazole] |  | 150 |  |  | 9.8 |  | 10 | 20.4 | 28.2 | 
CCCCn1nc(C2OCCCO2)nc1Cc1ccc(-c2ccccc2-c2nnn[nH]2)nc1 [Example 31, 5-[2-[5-[[1-butyl-3-[2-(1,3-dioxanyl)]-1H-1,2,4-triazol-5-yl]methyl]-2-pyridinyl]phenyl]-1H-tetrazole] |  | 180 |  |  | 20 |  | 25 | 27.5 | 70.8 | 
CCCCn1nc(C2OCC(C)(C)CO2)nc1Cc1ccc(-c2ccccc2-c2nnn[nH]2)nc1 [Example 32, 5-[2-[5-[[1-butyl-3-[2-(5,5-dimethyl-1,3-dioxanyl)]-1H-1,2,4-triazol-5-yl]methyl]-2-pyridinyl]phenyl]-1H-tetrazole] |  | 180 |  |  | 21 |  | 20 | 20 | 75.9 | 
CNCC(=O)N[C@@H](CCCN=C(N)N)C(=O)N[C@H](C(=O)N[C@@H](Cc1ccc(O)cc1)C(=O)N[C@H](C(=O)N[C@@H](Cc1cnc[nH]1)C(=O)N1CCC[C@H]1C(=O)N[C@@H](C)C(=O)O)C(C)C)C(C)C [Saralasin] |  |  |  |  |  |  |  |  |  | significant residual agonist activity
